Assay results as given in PMC12301034, “Design and Synthesis of Boronic Chalcones with Dual Anticancer and Anti-Inflammatory Activity” (Molecules, 2025).
Where two headings read alike, the source gives them in different places.

Key:
[1] = Partition coefficient (Log P), OECD 117 HPLC method
[2] = system: HCT116 p53^+/+ cells; experiment: SRB cytotoxicity assay on HCT116 p53+/+ cells; type: cell-based, human
Excerpt: (§1) The SCC-25 (ATCC® CRL-1628™), Detroit-562 (ATCC® CCL-138™), and THP-1 (ATCC® TIB-202™) cells were purchased from Rio de Janeiro Cell Bank (Duque de Caxias, Brazil), and NOK-si was kindly provided by Prof. Carlos Rossa from the School of Dentistry—UNESP. All the cells were cultivated according to standard conditions. Human colorectal adenocarcinoma HCT116 cell lines (ATCC® CCL-247™) expressing p53 and its p53-null isogenic derivative (HCT116 p53^−/−) were provided by B. Vogelstein (The Johns Hopkins Kimmel Cancer Center, Baltimore, MD, USA).
(§2) HCT p53^+/+ and HCT p53^−/− cell lines were seeded in 96-well plates, with a concentration of 5000 cells/well, and allowed to adhere overnight. Afterwards, they were treated with serial dilutions of the compounds for an additional 48 h (compounds were prepared at 30 mM, in DMSO, and tested with a starting concentration of 50μM and 15 μM). Cells passed then through a series of essential steps (fixation with 10% trichloroacetic acid, for 1 h at 4 °C; staining with 0.4% sulforhodamine B (SRB); wash with 1% acetic acid; and solubilization with 10 mM Tris-Base); subsequently, absorbance was measured at 510 nm in a microplate reader (Biotek Instruments Inc., Synergy, MX, USA). IC50 values were determined using GraphPad Prism software, Version 7.0 (La Jolla, CA, USA).

[3] = system: NOK-si cells; experiment: MTT cytotoxicity assay on NOK-si normal oral keratinocytes; type: cell-based; conditions: 24 h incubation; for CC50: Keratinocyte, read-out: NOK-si IC50
Excerpt: as §1
(§3) Cells (NOK-si, SCC-25, and Detroit-562) were grown in a DMEM medium (Dulbecco’s Modified Eagle Medium), supplemented according to the needs of each lineage, as recommended by its cell banks, with 2 mM L-glutamine, 10% or 20% fetal bovine serum (FBS), 1% antibiotic–antimycotic solution (5 mg/mL penicillin, 5 mg/mL streptomycin, and 10 mg/mL neomycin), 4.5 g/L of glucose, and 3.7 g/L of sodium bicarbonate (NaHCO3). All cell lines were cultured in flasks at 37 °C in 5% carbon dioxide (CO2) and 95% of relative humidity. The assays were conducted between the third- and the seventh-cell passage, with sub-cultures every 3–4 days to maintain exponential growth. The cell viability was checked using the trypan blue dye exclusion assay for all experiments, where over 95% of the cells were viable at the beginning of the tests. NOK-si, SCC-25, and Detroit-562 were initially thawed and cultured in 25 cm^2 cell culture flasks. Cell growth was monitored using a microscope, and the culture medium was changed periodically. Upon reaching confluency, cell dissociation was achieved by adding 5 mL of trypsin (Sigma-Aldrich, St Louis, MO, USA) and incubating the bottles in a CO2 incubator for 10 min. Subsequently, the cells were transferred to 15 mL Falcon tubes and centrifuged at 2000 rpm for 10 min. Cell counting was performed using a Countess II FL automated cell counter (ThermoFischer, Waltham, MA, USA). The cells were seeded at a density of 30,000 cells per well in 96-well plates. The plates were then incubated at 37 °C in 5% CO2 for 24 h. Following this, test compounds were incubated for another 24 h at 10 different concentrations: 50, 25, 12.5, 6.25, 3.12, 1.56, 0.78, 0.39, 0.19, and 0.097 µg/mL. After the specified time, MTT reagent (3 mg/mL) (Sigma-Aldrich, St Louis, MO, USA) dissolved in phenol-free RPMI 1640 was added and incubated for 4 h. The formed MTT crystals were solubilized using 2-propanol P.A. (Sigma-Aldrich, St Louis, MO, USA) with agitation. Absorbance was read at 562 nm using an EZ Read 400 microplate reader (Biochrom, Cambridge, UK) and ADAP 2.0 Biochrom software (version 2.0). IC50 values and graphs were calculated using Excel and Prism software (version 10.4.1). The MTT assay results were evaluated for normality using the Shapiro–Wilk test, followed by one-way ANOVA with Tukey’s post hoc test at a significance level of 5%.

[4] = system: HCT116 p53^−/− cells; experiment: SRB cytotoxicity assay on HCT116 p53-/- cells; type: cell-based, human
Excerpt: as §1, §2

[5] = system: IL-6; experiment: Anti-inflammatory assay, IL-6 in LPS-stimulated THP-1 cells (CBA); type: cell-based, human; conditions: 2 and 4 µg/mL, 24 h
Method: (§4) For this assay, THP-1 (BCRJ cód. 0234) cells were cultured in Roswell Park Memorial Institute (RPMI-1640, Sigma-Aldrich; Saint Louis, MO, USA) media supplemented with 2 mM L-glutamine, 1 mM sodium pyruvate, 1.50 g/L of sodium bicarbonate, and 10% fetal bovine serum. For obtaining Macrophage-like cells, 250,000 cells per well were plated in a 24-well cell culture plate. A total of 20 ng/mL of Forbol 12-miristato-13-acetato (PMA) was added to each well, and the cells were incubated for 48 h at 37 °C with 5% CO2. After the 48 h, the wells were washed with 1X PBS, and fresh RPMI-1640 media was added. The cells were then incubated for 24 h at 37 °C and 5% CO2. For the cell’s stimulations, after the 24 h, the well was washed with PBS and fresh RPMI1640 media without fetal bovine serum added. For the positive controls of the assay, 3 wells were stimulated with LPS (1 ng/µL) diluted in the same volume and media used for the drugs stimulation. Two different concentrations (2 and 4 µg/mL) were evaluated for each molecule, which were determined to be non-cytotoxic through a cell viability assay. After a 24 h period, the supernatant was removed and used in the cytokine quantification assay. A kit for inflammatory cytokines, BD® Cytometric Bead Array CBA Human Inflammatory, was employed for this assay, containing the following human cytokines: IL-8, IL-1β, IL-6, and TNF. […]

[6] = system: IL-1β; experiment: Anti-inflammatory assay, IL-1β in LPS-stimulated THP-1 cells (CBA); type: cell-based, human; conditions: 2 and 4 µg/mL, 24 h
Method: as §4

[7] = system: TNF; experiment: Anti-inflammatory assay, TNF in LPS-stimulated THP-1 cells (CBA); type: cell-based, human; conditions: 2 and 4 µg/mL, 24 h
Method: For this assay, THP-1 (BCRJ cód. 0234) cells were cultured in Roswell Park Memorial Institute (RPMI-1640, Sigma-Aldrich; Saint Louis, MO, USA) media supplemented with 2 mM L-glutamine, 1 mM sodium pyruvate, 1.50 g/L of sodium bicarbonate, and 10% fetal bovine serum. For obtaining Macrophage-like cells, 250,000 cells per well were plated in a 24-well cell culture plate. A total of 20 ng/mL of Forbol 12-miristato-13-acetato (PMA) was added to each well, and the cells were incubated for 48 h at 37 °C with 5% CO2. After the 48 h, the wells were washed with 1X PBS, and fresh RPMI-1640 media was added. The cells were then incubated for 24 h at 37 °C and 5% CO2. For the cell’s stimulations, after the 24 h, the well was washed with PBS and fresh RPMI1640 media without fetal bovine serum added. For the positive controls of the assay, 3 wells were stimulated with LPS (1 ng/µL) diluted in the same volume and media used for the drugs stimulation. Two different concentrations (2 and 4 µg/mL) were evaluated for each molecule, which were determined to be non-cytotoxic through a cell viability assay. After a 24 h period, the supernatant was removed and used in the cytokine quantification assay. A kit for inflammatory cytokines, BD® Cytometric Bead Array CBA Human Inflammatory, was employed for this assay, containing the following human cytokines: IL-8, IL-1β, IL-6, and TNF. Standard cytokines were prepared in 9 different concentrations: 1:256, 1:128, 1:64, 1:32, 1:16, 1:8, 1:4, 1:2, and 1:1 (“top standard”). Analysis was performed using a Flow Cytometer FACS Aria Fusion BD (Bioscence, Houston, TX, USA). Data analysis was conducted using Prism software (version 10.4.1).

[8] = system: SCC-25 cells; experiment: MTT cytotoxicity assay on SCC-25 cells; type: cell-based, human; conditions: for IC50: MTT, 24 h incubation, mean SEM of three experiments; for SI = IC50 NOK-si/IC50 SCC-25: selectivity index
Excerpt: as §1, §3

[9] = system: Detroit-562 cells; experiment: MTT cytotoxicity assay on Detroit-562 cells; type: cell-based; conditions: Homo sapiens; MTT, 24 h incubation, Detroit-562 metastatic pharyngeal cancer model
Excerpt: as §1
Cells (NOK-si, SCC-25, and Detroit-562) were grown in a DMEM medium (Dulbecco’s Modified Eagle Medium), supplemented according to the needs of each lineage, as recommended by its cell banks, with 2 mM L-glutamine, 10% or 20% fetal bovine serum (FBS), 1% antibiotic–antimycotic solution (5 mg/mL penicillin, 5 mg/mL streptomycin, and 10 mg/mL neomycin), 4.5 g/L of glucose, and 3.7 g/L of sodium bicarbonate (NaHCO3). All cell lines were cultured in flasks at 37 °C in 5% carbon dioxide (CO2) and 95% of relative humidity. The assays were conducted between the third- and the seventh-cell passage, with sub-cultures every 3–4 days to maintain exponential growth. The cell viability was checked using the trypan blue dye exclusion assay for all experiments, where over 95% of the cells were viable at the beginning of the tests. NOK-si, SCC-25, and Detroit-562 were initially thawed and cultured in 25 cm^2 cell culture flasks. Cell growth was monitored using a microscope, and the culture medium was changed periodically. […] Absorbance was read at 562 nm using an EZ Read 400 microplate reader (Biochrom, Cambridge, UK) and ADAP 2.0 Biochrom software (version 2.0). IC50 values and graphs were calculated using Excel and Prism software (version 10.4.1). The MTT assay results were evaluated for normality using the Shapiro–Wilk test, followed by one-way ANOVA with Tukey’s post hoc test at a significance level of 5%.

[10] = reference compounds for calibration curve; cited from earlier work
[11] = Homo sapiens, HCT-116, 48 h of treatment
[12] = 48 h of treatment, read-out: HCT p53^+/+ IC50
[13] = 48 h of treatment, read-out: HCT p53^−/− IC50

Compound	chromatographic logP [1]	CC50 [3] [µM]	IC50 ([8]; Homo sapiens, SCC-25) [µM]	SI = IC50 NOK-si/IC50 SCC-25 [8]	further results
COc1cccc(C(=O)/C=C/c2ccccc2)c1 [Compound 1]	3.73	101.5 ± 0.17	24.9 ± 1.09	4.08	IC50 [2, 11]: 6.83 ± 1.15 µM; IC50 [4, 11]: 7.56 ± 0.4 µM; reduction of IL-6 levels [5]: lower effectiveness; reduction of IL-1β levels [6]: comparable efficacy in reducing cytokine levels relative to LPS-stimulated cells; reduction of TNF levels [7]: lower effectiveness
O=C(/C=C/c1cccc(B(O)O)c1)c1ccccc1 [Compound 2, (E)-(3-(3-oxo-3-phenylprop-1-en-1-yl)phenyl)boronic acid]	2.68	133 ± 3.25	134 ± 12.3	1.00	IC50 [2, 11]: 4.4 ± 0.53 µM; IC50 [4, 11]: 3.63 ± 0.47 µM
Nc1cccc(C(=O)/C=C/c2cccc(B(O)O)c2)c1 [Compound 3, (E)-(3-(3-(3-aminophenyl)-3-oxoprop-1-en-1-yl)phenyl)boronic acid]	1.49	36.2 ± 10.7	45.2 ± 13.7		
O=C(/C=C/c1cccc(B(O)O)c1)c1cccc(O)c1 [Compound 4, (E)-(3-(3-(3-hydroxyphenyl)-3-oxoprop-1-en-1-yl)phenyl)boronic acid]	1.81	18.5 ± 4.43	9.8 ± 1	1.88	IC50 [2, 11]: 2.33 ± 0.2 µM; IC50 [4, 11]: 2.16 ± 0.25 µM; IC50 [9]: 31.6 ± 3.13 µM
O=c1[nH]cc(F)c(=O)[nH]1 [Compound 5-FU, 5-fluorouracil, reference compound]		1800 ± 27.7	1800	lacked selectivity	
COc1ccc(C(=O)/C=C/c2cccc(B(O)O)c2)cc1OC [Compound 6, (E)-(3-(3-(3,4-dimethoxyphenyl)-3-oxoprop-1-en-1-yl)phenyl)boronic acid]	2.3	20.8 ± 2.17	27.2 ± 3.84	0.77	
Nc1cccc(C(=O)/C=C/c2ccc(B(O)O)cc2)c1 [Compound 9, (E)-(4-(3-(3-aminophenyl)-3-oxoprop-1-en-1-yl)phenyl)boronic acid]	1.18	74.6 ± 15	108 ± 22.5	0.69	
O=C(/C=C/c1ccc(B(O)O)cc1)c1cccc(O)c1 [Compound 10, (E)-(4-(3-(3-hydroxyphenyl)-3-oxoprop-1-en-1-yl)phenyl)boronic acid]	1.64	25.7 ± 11.6	43.8 ± 4.43	0.59	
COc1cccc(C(=O)/C=C/c2ccc(B(O)O)cc2)c1 [Compound 11, (E)-(4-(3-(3-methoxyphenyl)-3-oxoprop-1-en-1-yl)phenyl)boronic acid]	2.81	96.2 ± 21.3	65.9 ± 11	1.46	IC50 [2, 11]: 3.96 ± 0.55 µM; IC50 [4, 11]: 3.8 ± 0.26 µM
COc1ccc(C(=O)/C=C/c2ccc(B(O)O)cc2)cc1OC [Compound 12, (E)-(4-(3-(3,4-dimethoxyphenyl)-3-oxoprop-1-en-1-yl)phenyl)boronic acid]	2.16	29.5 ± 6.08	38.4 ± 1.63	0.77	
Clc1ccc(C(c2ccc(Cl)cc2)C(Cl)(Cl)Cl)cc1 [DDT]					log P of reference compounds [10]: 6.5
Nc1ccccc1 [aniline]					log P of reference compounds [10]: 0.9
(E)-(3-(3-(2-bromo-4-hydroxyphenyl)-3-oxoprop-1-en-1-yl)phenyl)boronic acid [Compound 7]				1.31	IC50 [2, 12]: 3.63 ± 0.4 µM; NOK-si IC50 [3]: 54.0 ± 10.98 µM; IC50 [4, 13]: 4.2 ± 0.35 µM; IC50 [8]: 41.1 ± 4.62 µM
(E)-(3-(3-(2-bromo-4-methoxyphenyl)-3-oxoprop-1-en-1-yl)phenyl)boronic acid [Compound 8]				0.82	IC50 [2, 12]: 2.06 ± 0.45 µM; NOK-si IC50 [3]: 27.4 ± 3.05 µM; IC50 [4, 13]: 1.7 ± 0.72 µM; IC50 [8]: 33.4 ± 1.25 µM
